Consider 2 compounds from patent US20060018851A1, “Methods and compositions for preventing and treating hyperpigmentation of skin” (ProCyte Corporation, priority 2004, published 2006).

The test system of this assay is B16 melanocytes. The experiment in a line: Melanin (pigment) produced by B16 melanocytes in culture; culture media analyzed for pigment content after 5 days, pictures of culture plates. The note with it: for Percent Inhibition of Pigmentation in Melanocytes: 5 days. Format: cell-based. As to the method:
The effect of peptide manganese complexes on pigmentation was determined by determining the amount of melanin produced by B16 melanocytes in culture. Various amounts of a representative peptide manganese complex (glycyl-L-histidyl-L-lysine:manganese) were added to the culture medium. After 5 days, the culture media was collected and analyzed for pigment content. In addition, pictures were taken of the culture plates.

On to `O=c1cc(CO)occ1O` [kojic acid, 5-hydoxy-4-pyran-4-one-2-methyl, reference compound], for which the “inhibition of pigment formation compared with GHK-Mn” value (200 ug/mi kojic acid vs 25 ug/ml GHK-Mn) was “approximately equivalent”.

With “glycyl-L-histidyl-L-lysine:manganese(II) [GHK-Mn]”, the “Percent Inhibition of Pigmentation in Melanocytes” value is, setting by setting: (0.1 ug/mL, Plate I) 42%; (0.1 ug/mL, Plate II) 28%; (1.0 ug/ml, Plate I) 68%; (1.0 ug/ml, Plate II) 35%; (10 ug/ml, Plate I) 88%; (10 ug/ml, Plate II) 81%. Besides, the “inhibition of pigment formation compared with kojic acid” value (25 ug/ml GHK-Mn vs 200 ug/mi kojic acid) is reported as “approximately equivalent to that of 200 ug/mi of kojic acid”. Where the note is “highest concentration tested”, the “formation of pigment inhibited relative to the control” value was “more than 80%”. Further, the “formation of melanin pigments in cultured melanocytes (Table 4, FIG. 1)” value (various concentrations) was “inhibited the formation of melanin pigments in cultured melanocytes in a dose responsive manner”. Also, the “visual examination of culture flasks: secreted melanin (FIG. 2)” value (vs PBS control flask) is given as “contains relatively little melanin”. Also, the “melanin in the cells, high magnification photograph (FIG. 3B)” value (vs control melanocyte culture (FIG. 3A)) is on record as “containing much less melanin in the cells”.
